Measured values reported in patent US9677140B2, “Molecular diagnostic test for cancer” (Almac Diagnostics Limited, priority 2010, dated 2017).

Experiments:
[1] = tested on: HCC1937 BRCA1 mutant and HCC1937-BR (BRCA1 corrected) breast cancer cell-lines; experiment: Cell viability assay (CellTitre-Glo), determination of cisplatin sensitivity; type: cell-based; details: HCC1937 BRCA1 mutant cell-line relative to the BRCA1 corrected cell-line (HCC1937-BR); 96 hours exposure
Protocol: For measurement of sensitivity to cisplatin, exponentially growing cells were seeded into 96-well plates. […] Cells were incubated in the presence of drug for 96 hours following which time the viability of the cells was assessed using the Promega CellTitre-Glo luminescent cell viability assay. The sensitivity of the cells was calculated as the percentage of vehicle (DMSO) control.

[2] = tested on: HCC1937 BRCA1 mutant and HCC1937-BR (BRCA1 corrected) breast cancer cell-lines; details: HCC1937 BRCA1 mutant cell-line relative to the BRCA1 corrected cell-line (HCC1937-BR); constant exposure, 12-14 days
Protocol: The HCC1937 parental, HCC1937-EV and HCC1937-BR cell-lines were kindly donated by Professor Paul Harkin from Queen's University College Belfast (QUB). The cell-lines were routinely maintained in RPMI-1640 medium supplemented with 50 U penicillin/ml, 50 μg streptomycin/ml, 2 mM glutamine, 1 mM Sodium Pyruvate and 20% (v/v) fetal bovine serum (FBS). The HCC1937-EV and HCC937-BR cell-lines also required 0.2 ml/mg geneticin. Cell-lines were cultured at 37° C. with a humidified atmosphere of 5% CO2.
Twenty-four hours following seeding the cells were exposed to medium containing increasing doses of drug. Cell medium was replenished every 4-5 days. After 12-14 days the cells were fixed in methanol, stained with crystal violet and counted. The percentage survival of control for a given dose was calculated as the plating efficiencies for that dose divided by the plating efficiencies of vehicle-treated cells. Survival curves and half maximal inhibitory concentration (IC50) values were calculated using GraphPad Prism.

Row | SMILES | sensitivity to cisplatin (cell viability) [1] | sensitivity to PARP-1 inhibitor (clonogenic survival) [2]
1 | N.N.[Cl][Pt][Cl] [cisplatin] | more sensitive | –
2 | O=C(c1cc(Cc2n[nH]c(=O)c3ccccc23)ccc1F)N1CCCNCC1 [KU0058948] | – | more sensitive
